Reference: US20130190345A1, “MATRINIC ACID/MATRINE DERIVATIVES AND PREPARATION METHODS AND USES THEREOF” (priority 2010, published 2013)
Values after ≈ are worked out from the molar mass of the structure shown.

Tests used:
[1] = test system: Lamivudine-resistant strain (LRS M204V L180M) HBV; assay: Inhibition effects on drug resistant type HBV (Real-time PCR of HBV DNA, Huh-7.5 cells); assay type: cell-based; details: 36 h; lamivudine 0.16n/mL, compound 6b 37 μg/mL
Method: (§1) Lamivudine-resistant strain (LRS M204V L180M) was used to transfect Huh-7.5 cells, lamivudine was used as positive control, lamivudine (0.16n/mL) and compound 6b (37 μg/mL) were separately used to treat wild type and LRS type HBV, after 36 h, Real-time PCR was used to determine HBV DNA levels, respectively, and the results were shown in FIG. 12.

[2] = Acute toxicity of compound in mice; assay type: in vivo
Method: Kunming mice (purchased from Institute of Animal, Chinese Academy of Medical Sciences), 18-20 g, were weighed and randomly divided in groups, 10 mice per group, half male and half female, intraperitoneally injected with DM122 solution, in concentration of 0, 250 mg/kg, 500 mg/kg and 1000 mg/kg once. The death of animals was observed. On the 7th day, the animals were weighed, blood samples were taken and functional indexes (GOT, GPT, BUN and CRE) of liver and kidney in blood were determined.
Since Compound 6b had relatively high activity on anti-HBV and anti-HCV. The inventors had used it as a candidate of anti-hepatitis drug to evaluate its safety in animal body. Kunming mice were used for test of safety and acute toxicity of Compound 6b (13-methoxy matrine), via oral administration, administration doses were separately 250, 500 and 750 mg/kg once, then the mice were strictly monitored for 7 days.

HCV = assay: Inhibition effects of compounds on HCV in Huh7.5 cultured cell after HCV infection; assay type: cell-based; details: for EC50 (half effective concentration): virus not given, stands beside HCV inhibition rate
Summary of the method: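 Huh7.5 cells, cultured 24 h, were infected with HCV at 45 IU/cell and given drug in medium for 72 h at 37° C. Intracellular HCV and GAPDH RNA quantified by one-step qRT-PCR, with inhibition analysed against virus control; three repeats.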

Hsc70 [3] = assay: Detection of Hsc70 gene expression level upon action of compound on 2.2.15 cells (real-time fluorescent quantified PCR); assay type: cell-based; set-up: Hsc70 mRNA / Hsc70 down-regulation rate (%): unit not given here; details: 2.2.15 cells; for Hsc70 mRNA: down-regulation of liver cell Hsc70 gene; for Hsc70 inhibition rate (down-regulation of Hsc70 expression activity, expressed in relative OMT ratio): relative to OMT (= 1)
Summary of the method: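 2.2.15 cells grown 24 hr in 10% FCS medium, then exposed to compounds (20 mg/ml MEM stock diluted in medium) for 12, 24 or 36 hr; 400 μg/ml OMTR as control. Hsc70 mRNA and HBV DNA changes measured by real-time fluorescent quantitative PCR.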

wild type HBV = assay: Inhibition effects on wild type HBV (Real-time PCR of HBV DNA, Huh-7.5 cells); assay type: cell-based; details: 36 h; lamivudine 0.16n/mL, compound 6b 37 μg/mL
Method: as §1

2.2.15 cells = assay: Drug TC50 by MTT detection; assay type: cell-based; details: Reed-Muench
Method: 2.2.15 cells (all cells were purchased from Vertex Pharmaceutical Co., USA) in exponential growth phase were inoculated on 96-well culture plate, 2×10^5 cells/well, added with culture media containing PFA diluted in different concentration rates, 3 wells for each diluted concentration, placed in 37° C. CO2—containing incubator and cultivated for 48 h; the supernatant was discarded, 100 μl of MTT (0.5 mg/ml) in culture medium was added, cultivation was continuously performed at 37° C. for 4 h; each well was added to 100 μl of 50% DMF-20% SDS destaining solution, stood at 37° C. overnight; ELISA was used to measure optical density at wavelength of 570 nm (0D570).
In each experiment, 3 cell control wells and 3 blank controls well were set, the results were used in formula, (cell control OD570-drug-medicated cell OD570)/cell control OD570, to calculate cell death rate (%), and Reed-Muench method was used to calculate half toxic concentration TC50.

Hsc70 [4] = assay: Inhibition effects of compound on Hsc70 in Huh7.5 cultured cell (qRT-PCR, Western blotting); assay type: cell-based; set-up: key to Hsc70 down-regulation rate (%): “—” represents no significant inhibition rate
Method: 2×10^5/ml Huh7.5 cells (purchased from Vertex Pharmaceutical Co., USA) were inoculated in an amount of 3 ml on 6-well culture plate, placed in an incubator with 37° C., 5% CO2 content, saturation humidity, and cultured for 24 h, added with different drug solutions (DM122) formulated with culture medium, and cell control was set. Cultivation was continuously performed in the incubator with 37° C., 5% CO2 content, saturation humidity for 24 h, a kit for RNA extraction was used to extract intracellular RNA from the cells, and one-step qRT-PCR was used to determine intracellular contents of Hsc70 and GAPDHRNA. After the cultivation of cells was performed for 48 h, the cells were digested and harvested, then the cells were split with CytoBuster™ Protein Extraction Buffer that contained many kinds of protease inhibitors, total intracellular proteins were extracted, and Western blotting was used to analyze the contents of Hsc70 and GAPDH proteins. In comparison with the cell control, the inhibition effects on Hsc70 upon action of different drugs were analyzed.

Hsc70 [5] = assay: Hsc70 protein in virus particles in supernatant from HCV-infected Huh7.5 cultured cell liquid; assay type: cell-based; details: HCV-infected Huh7.5 cells, 96 h, Western blotting (FIG. 8)
Method: Huh7.5 cells were inoculated in an amount of 3×10^4/cm^2, cultured in 10 cm culture dish (58.1 cm^2/well) for 6 h, infected with HCV and simultaneously added with DM-122 drug solutions with different concentration and positive control Intron A, after action for 96 h, the supernatant from cultured cell liquid was subjected to ultra-high speed centrifugation to separate virus particles, Western blotting was used to analyze the contents of Hsc70 and GAPDH proteins in virus particles.

DHBV = DHBV animal test; assay type: in vivo, Peking ducks
Method: Infection and administration: Peking ducks (purchased from Institute of Animals, Chinese Academy of Medical Sciences) were infected via foot vein with 0.2 ml DHBV positive serum. […] The control group was administered with physiological saline (1 ml); positive control was administered with 3TC (lamivudine), in dose of 50 mg/kg (5 mg/ml, 1 ml).

Compound	Hsc70 mRNA (Hsc70 [3])	melting point [°C]	Hsc70 inhibition rate (down-regulation of Hsc70 expression activity, expressed in relative OMT ratio) (Hsc70 [3])	CC50 (concentration to cause poisoning in half cells) (2.2.15 cells) [µg/mL]	HCV inhibition rate (%) (HCV; 200 ug/ml (upper data))	HCV inhibition rate (%) (HCV; 400 ug/ml (lower data))	EC50 (half effective concentration) (HCV) [µg/mL]	Hsc70 down-regulation rate (%) (Hsc70 [4]; 200 ug/ml (upper data))	Hsc70 down-regulation rate (%) (Hsc70 [4]; 400 ug/ml (lower data))	other results
CCOC1CC(=O)N2CC3CCCN4CCCC(C34)C2C1 (centres unmarked) [Compound 6b, 13-ethoxy matrine]	74.1 ± 0.11									inhibition rate on drug-resistant HBV [1]: 32%; oral LD50 ([2]; mice, oral administration once): greater than 1000 mg/kg; death of mice ([2]; oral once, 250, 500 and 750 mg/kg): no mouse died; change of bodyweight ([2]; oral once, 250, 500 and 750 mg/kg (FIG. 11A)): no significant change of bodyweight; AST, ALT, BUN and CRE indexes in blood ([2]; oral, 750 mg/kg dose group (FIG. 11B)): no significant abnormality; anti-HCV activity (HCV nucleoprotein and Hsc70 protein levels) (HCV; HCV-infected Huh7.5 cells, 200 μg/mL, Western blotting (FIG. 7B)): significant activity on anti-HCV; activity against HCV (HCV RNA level) (HCV; HCV-infected Huh7.5 cells, 200 μg/mL, real-time RT-PCR): best activity against HCV; inhibition rate on wild type HBV (wild type HBV): 35%
CC(=O)N1C[C@H]2CCCN3CCC[C@@H](C23)C1CCCC(=O)O (some centres unmarked)		127.4 to 129.6								
O=C(O)CCCC1NCC2CCCN3CCCC1C23 (centres unmarked) [DM-100, matrinic acid]		185.7 to 187.7	1.02							
COC1=CCC2C3CCCN4CCCC(CN2C1=O)C34 (centres unmarked) [Compound 10, 14-methoxy sophocarpine]	39.7 ± 0.16	110 to 111								
O=C(O)CCCC1C2CCCN3CCCC(CN1Cc1cccc([N+](=O)[O-])c1)C23 (centres unmarked) [DM-137, N-(3-nitrobenzyl) matrinic acid]			1.31	471.59 (≈ 1170 µM)	99.8 ± 0.1	99.7 ± 0.0	<12.34	—	—	
COc1ccc(CN2CC3CCCN4CCCC(C2CCCC(=O)O)C34)cc1 (centres unmarked) [DM-122, N-(4-methoxybenzyl) matrinic acid]			1.56	>1000	77.2 ± 4.8	88.0 ± 4.0	252.35 (≈ 653 µM)	36.8 ± 1.4%	—	Hsc70 protein content in virus particles in supernatant (Hsc70 [5]): reduced the Hsc70 protein content in virus particles; HBVDNA in liver, inhibition rate (DHBV; duckling, oral 37.5 mg/kg twice per day, 15 days (FIG. 1)): −5.14%; activity against hepatitis B virus in DHBV-infected ducks (HBV DNA in liver and serum) (DHBV; oral 150, 75, 37.5 mg/kg twice per day, 15 days): good activity against hepatitis B virus; influence on body weight of mice ([2]; mouse, in vivo): no influence on body weight of mice; influence on liver and kidney functions (GOT, GPT, BUN, CRE) ([2]; mouse, in vivo, ip): no influence on liver and kidney functions; inhibition of intracellular HCV Core and Hsc70 proteins (HCV; HCV-infected Huh7.5 cells, 72 h, Western blotting (FIG. 7A)): dose-dependent inhibition effects; effect on intracellular HCV RNA (HCV; HCV-infected Huh7.5 cells, 72 h, qRT-PCR (FIG. 6)): dose-dependent effects; inhibition of intracellular Hsc70 mRNA (Hsc70 [4]; Huh7.5 cells, 24 h, qRT-PCR (FIG. 4)): dose-dependent inhibition effects; inhibition of intracellular Hsc70 protein (Hsc70 [4]; Huh7.5 cells, 48 h, Western blotting (FIG. 5)): dose-dependent inhibition effects
O=C1CC(O)CC2C3CCCN4CCCC(CN12)C34 (stereo not drawn) [Compound 5, β-hydroxyl matrine]	50.4 ± 0.19	211 to 213								
Cc1ccc(CN2CC3CCCN4CCCC(C2CCCC(=O)O)C34)cc1 (centres unmarked) [DM-140, N-(4-methylbenzyl) matrinic acid]			0.77	>1000	83.4 ± 1.8	96.0 ± 1.2	18.68 (≈ 50.4 µM)	53.8 ± 7.6%	—	
O=C(O)CCC[C@@H]1[C@H]2CCCN3CCC[C@@H](CN1Cc1ccc([N+](=O)[O-])cc1)[C@@H]23 [DM-123, N-(4-nitrobenzyl) matrinic acid]			−1.6	455.7 (≈ 1130 µM)	74.0 ± 7.8	81.1 ± 6.6	104.61 (≈ 261 µM)	65.9 ± 6.9%	70.5 ± 2.3%	
O=C1C(O)C(O)CC2C3CCCN4CCCC(CN12)C34 (centres unmarked) [Compound 8, 13,14-dihydroxyl matrine]	38.9 ± 0.13	156 to 158								
CC(=O)N1C[C@@H]2CCCN3CCC[C@@H](C23)C1CCCC(=O)O (some centres unmarked) [DM-101, N-acetyl matrinic acid]		196.8 to 198.9	0.73							
Nc1ccn([C@@H]2CS[C@H](CO)O2)c(=O)n1 [lamivudine, reference compound]										inhibition rate on drug-resistant HBV [1]: 28%; inhibition rate on wild type HBV (wild type HBV): 64%
